Legend:
Format in all cases: biochemical
[1] = molecular target: human PDE6A/6B (Homo sapiens (Human), UniProt P16499+P35913); experiment: PDE enzyme assay using [3H]cGMP as substrate (SPA); details: [3H]cGMP 80 nM; read-out: PDE6AB IC50
Text: (§1) The nucleotide sequences encoding full-length human PDE1A (NP_001003683.1) and PDE1C (NP_005011.1) are inserted into pFastBac1 (Invitrogen) vector with an N-terminal HIS tag. The nucleotide sequences encoding full-length human PDE4D (NP_006194.2) and catalytic domain (residue 641-1141) of PDE3A (NP_000912.3) are inserted into pFastBac1 (Invitrogen) vector with a C-terminal HIS tag. The nucleotide sequences encoding full-length human PDE6A (NP_000431.2) and PDE6B (AAH00249.1) are inserted into pFastBacDual (Invitrogen) vector with an N-terminal HIS tag and N-terminal Flag tag, respectively, for production of PDE6A/6B dimer. Baculovirus generation and protein expression in Sf9 cells are carried out according to the protocol of Bac-to-Bac Baculovirus Expression system (Invitrogen). The nucleotide sequence encoding full-length human PDE1B (NP_000915.1) is inserted into pIEX4 (Novagen) with a C-terminal HIS tag, and both protein productions in Sf9 cells are carried out according to the vendor's protocol (Novagen). The His tagged PDE proteins are purified using Ni-NTA agarose (Qiagen) followed by size exclusion chromatography on a SUPERDEX© 200 column (GE Healthcare) in storage buffer (20 mM Tris-HCl, pH 7.5, 150 mM NaCl, 10% Glycerol). The Flag tagged PDE proteins including PDE6A/6B are purified using anti-Flag M2-agarose (Sigma), after purification through NiNTA column chromatography and eluted in storage buffer (50 mM Tris-HCl, pH 7.5, 150 mM NaCl, 10% Glycerol, 0.1 mg/ml Flag peptide). All purified proteins are stored at −80° C. in small aliquots.
(§2) All 3′, 5′ cyclic nucleotide PDE enzyme activities are measured with a radiometric enzyme assay based on SPA detection system. Compounds to be tested are diluted in pure DMSO using ten point concentration response curves. Maximal compound concentration in the reaction mixture is either 10 or 100 μM. Compounds at the appropriate concentration are pre-incubated with either of the PDE enzymes for 30 minutes before the reaction is started by the addition of substrate. Reactions are allowed to proceed for 60 minutes at room temperature. Next, reactions are stopped by addition of SPA beads. Samples are read 12 hours later in a MICROBETA™ TRILUX© Counter. IC50 values are calculated by plotting the normalized data vs. log [compound] and fitting the data using a four parameter logistic equation.
The following phosphodiesterase activities are measured using [3H]cGMP as reaction substrate: human PDE6A/6B. The catalytic active form of human PDE6 is a dimer composed of an a (human PDE6A) and […] (human PDE6B). The dimer of human PDE6A/6B is produced by the coexpression and purification strategy, using two purification steps, i.e., NiNTA and anti-FLAG Sepharose chromatography. The assay buffer is prepared to give a final concentration in the assay of 50 mM Tris-HCl, 8.3 mM MgCl2, 1.7 mM EDTA and 0.1% BSA at pH 7.5. The final enzyme concentration is 5 nM. The reactions are started by addition of the substrate, [3H]cGMP, to give a final concentration of 80 nM.

[2] = molecular target: human PDE1C (Homo sapiens (Human), UniProt Q14123); experiment: Ca2+-calmodulin dependent PDE enzyme assay (radiometric SPA, [3H]cAMP); details: Mean ± standard deviation; [3H]cAMP 47 nM; read-out: PDE 1C IC50
Text: as §1, §2
(§3) PDE1B, PDE1A, and PDE1C are cloned and purified following standard protein generation procedures. […] The final enzyme concentration is 0.25, 0.074 and 0.0012 nM, for PDE1A, PDE1B and PDE1C respectively. The reactions are started by addition of the substrate, [^3H]cAMP, to give a final concentration of 47 nM.

[3] = molecular target: human PDE3A (catalytic domain) (Homo sapiens (Human), UniProt Q14432); experiment: PDE enzyme assay using [3H]cAMP as substrate (SPA); details: [3H]cAMP 47 nM
Text: as §1, §2
(§4) The following PDE activities are measured using [3H]cAMP as reaction substrate: human PDE3A (catalytic domain) and human PDE4D. Both enzymes are cloned and purified following standard procedures. The assay buffer is prepared to give a final concentration in the assay of 50 mM Tris-HCl, 8.3 mM MgCl2, 1.7 mM EDTA and 0.1% BSA at pH 7.5. Final enzyme concentrations are 0.008 and 0.021 nM for PDE3A and PDE4D, respectively. Reactions are started by addition of the substrate, [3H]cAMP, to give a final concentration of 47 nM.

[4] = molecular target: human PDE4D (Homo sapiens (Human), UniProt Q08499); experiment: PDE enzyme assay using [3H]cAMP as substrate (SPA); details: Mean ± standard deviation; [3H]cAMP 47 nM
Text: as §1, §2, §4

[5] = molecular target: human PDE1A (Homo sapiens (Human), UniProt P54750); experiment: Ca2+-calmodulin dependent PDE enzyme assay (radiometric SPA, [3H]cAMP); details: Mean ± standard deviation; [3H]cAMP 47 nM; read-out: PDE 1A IC50
Text: as §1, §2, §3

[6] = molecular target: human PDE1B (Homo sapiens (Human), UniProt Q01064); experiment: as above; details: Mean ± standard deviation; [3H]cAMP 47 nM; read-out: PDE 1B IC50
Text: as §1, §2, §3

human PDE4D, sequence (Q08499 other isoform, or with tags, fused parts or gaps): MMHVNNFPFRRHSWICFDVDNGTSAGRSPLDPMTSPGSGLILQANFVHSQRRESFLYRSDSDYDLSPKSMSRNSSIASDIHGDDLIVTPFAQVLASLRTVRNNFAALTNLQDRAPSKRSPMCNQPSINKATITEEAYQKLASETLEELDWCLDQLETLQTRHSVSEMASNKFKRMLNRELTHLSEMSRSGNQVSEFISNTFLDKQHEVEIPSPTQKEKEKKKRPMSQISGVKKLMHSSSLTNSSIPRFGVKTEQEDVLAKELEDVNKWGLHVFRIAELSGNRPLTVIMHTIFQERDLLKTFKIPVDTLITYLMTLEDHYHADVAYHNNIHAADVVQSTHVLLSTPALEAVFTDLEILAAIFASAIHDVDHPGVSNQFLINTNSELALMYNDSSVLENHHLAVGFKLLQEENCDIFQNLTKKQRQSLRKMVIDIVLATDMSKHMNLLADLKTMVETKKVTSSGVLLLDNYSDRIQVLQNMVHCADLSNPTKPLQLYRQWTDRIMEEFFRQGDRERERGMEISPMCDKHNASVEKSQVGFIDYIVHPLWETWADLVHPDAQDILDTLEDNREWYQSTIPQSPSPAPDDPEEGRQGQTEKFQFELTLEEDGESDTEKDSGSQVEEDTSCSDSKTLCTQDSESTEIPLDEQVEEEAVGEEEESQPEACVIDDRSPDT
human PDE3A (catalytic domain), sequence (Q14432 641-1141): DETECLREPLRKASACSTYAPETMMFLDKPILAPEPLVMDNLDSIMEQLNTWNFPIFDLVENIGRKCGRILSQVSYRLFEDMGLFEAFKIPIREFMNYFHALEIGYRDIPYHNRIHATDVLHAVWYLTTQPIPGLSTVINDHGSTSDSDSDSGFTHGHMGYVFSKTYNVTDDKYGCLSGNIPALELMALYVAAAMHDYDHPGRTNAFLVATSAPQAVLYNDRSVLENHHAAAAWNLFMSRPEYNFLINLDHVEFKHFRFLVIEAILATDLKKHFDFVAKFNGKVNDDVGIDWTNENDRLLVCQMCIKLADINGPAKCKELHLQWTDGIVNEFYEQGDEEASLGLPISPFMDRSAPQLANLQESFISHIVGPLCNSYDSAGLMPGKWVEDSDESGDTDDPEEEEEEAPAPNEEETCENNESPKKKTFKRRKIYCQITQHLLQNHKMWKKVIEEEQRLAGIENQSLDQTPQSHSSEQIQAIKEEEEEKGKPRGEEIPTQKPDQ
human PDE6A/6B, sequence (P16499 whole entry, the tested form may be a part): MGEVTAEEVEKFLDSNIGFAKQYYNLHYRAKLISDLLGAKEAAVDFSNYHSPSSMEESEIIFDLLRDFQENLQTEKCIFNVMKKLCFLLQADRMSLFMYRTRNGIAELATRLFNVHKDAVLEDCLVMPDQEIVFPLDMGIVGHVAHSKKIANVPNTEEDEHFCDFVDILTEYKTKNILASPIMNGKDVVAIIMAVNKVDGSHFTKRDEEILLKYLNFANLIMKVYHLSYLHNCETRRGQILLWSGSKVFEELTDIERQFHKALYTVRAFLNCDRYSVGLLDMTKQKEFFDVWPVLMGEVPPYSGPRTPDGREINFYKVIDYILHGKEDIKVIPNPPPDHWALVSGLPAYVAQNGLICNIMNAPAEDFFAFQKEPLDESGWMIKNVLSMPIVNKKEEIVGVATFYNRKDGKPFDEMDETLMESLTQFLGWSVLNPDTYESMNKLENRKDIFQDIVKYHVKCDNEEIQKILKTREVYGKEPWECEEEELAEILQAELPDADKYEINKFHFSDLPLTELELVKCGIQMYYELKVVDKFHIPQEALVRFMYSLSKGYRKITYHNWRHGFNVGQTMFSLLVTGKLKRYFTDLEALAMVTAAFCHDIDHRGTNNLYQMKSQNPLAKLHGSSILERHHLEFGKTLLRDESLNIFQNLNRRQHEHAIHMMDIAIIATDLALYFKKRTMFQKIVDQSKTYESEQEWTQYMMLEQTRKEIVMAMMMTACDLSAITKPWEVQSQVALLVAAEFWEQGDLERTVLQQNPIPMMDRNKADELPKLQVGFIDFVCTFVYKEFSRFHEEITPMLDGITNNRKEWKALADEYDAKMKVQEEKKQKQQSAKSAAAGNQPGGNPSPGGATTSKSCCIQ
human PDE6A/6B, sequence (P35913 whole entry, the tested form may be a part): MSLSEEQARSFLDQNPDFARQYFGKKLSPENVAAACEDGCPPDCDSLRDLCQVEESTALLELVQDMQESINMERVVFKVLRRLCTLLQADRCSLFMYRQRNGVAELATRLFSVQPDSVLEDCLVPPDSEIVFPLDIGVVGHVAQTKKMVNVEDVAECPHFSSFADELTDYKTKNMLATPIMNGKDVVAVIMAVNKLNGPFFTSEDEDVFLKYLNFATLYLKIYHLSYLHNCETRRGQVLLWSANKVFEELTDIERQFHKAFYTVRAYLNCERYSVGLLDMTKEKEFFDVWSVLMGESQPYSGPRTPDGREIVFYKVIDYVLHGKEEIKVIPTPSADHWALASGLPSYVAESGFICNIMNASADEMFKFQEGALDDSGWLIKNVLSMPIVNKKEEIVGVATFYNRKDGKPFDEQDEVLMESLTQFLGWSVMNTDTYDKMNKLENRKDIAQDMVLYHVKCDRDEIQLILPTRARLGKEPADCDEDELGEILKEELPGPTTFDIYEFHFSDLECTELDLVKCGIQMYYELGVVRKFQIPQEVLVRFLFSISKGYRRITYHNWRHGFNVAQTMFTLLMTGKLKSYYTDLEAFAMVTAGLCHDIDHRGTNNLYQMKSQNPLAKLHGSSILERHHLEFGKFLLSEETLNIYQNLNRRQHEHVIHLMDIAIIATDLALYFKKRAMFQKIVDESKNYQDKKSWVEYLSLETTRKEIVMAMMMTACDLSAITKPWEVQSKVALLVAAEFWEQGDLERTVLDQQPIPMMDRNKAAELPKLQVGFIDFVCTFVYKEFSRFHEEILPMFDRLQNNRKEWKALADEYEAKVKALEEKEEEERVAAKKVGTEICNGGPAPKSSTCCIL

Structure (SMILES): Cc1c(C)n2c(C3(C4CC4)CC3)nnc2c(=O)n1CC1CCCCO1 (racemic) [Example 6, 3-(1-cyclopropylcyclopropyl)-5,6-dimethyl-7-(tetrahydropyran-2-ylmethyl)-[1,2,4]triazolo[4,3-a]pyrazin-8-one]
- IC50 [1]: > 10 µM
- IC50 [2]: 0.00188 ± 0.00056 µM
- IC50 [3]: > 100 µM
- IC50 [4]: 30.9 µM

Structure (SMILES): CCC1(c2nnc3c(=O)n(CC4CCCCO4)c(C)c(C)n23)CC1 (racemic) [Example 7, 3-(1-Ethylcyclopropyl)-5,6-dimethyl-7-(tetrahydropyran-2-ylmethyl)-[1,2,4]triazolo[4,3-a]pyrazin-8-one]
- IC50 [1]: > 10 µM
- IC50 [2]: 0.00776 µM
- IC50 [3]: > 100 µM
- IC50 [4]: 46.5 µM

Structure (SMILES): Cc1c(C)n2c(C3(C)CC3)nnc2c(=O)n1CC1CCCCO1 (racemic) [Example 8, 5,6-Dimethyl-3-(1-methylcyclopropyl)-7-(tetrahydropyran-2-ylmethyl)-[1,2,4]triazolo[4,3-a]pyrazin-8-one]
- IC50 [1]: 2.66 µM
- IC50 [3]: > 100 µM
- IC50 [4]: 57.7 µM

Structure (SMILES): Cc1c(C)n2c(C3(C4CC4)CC3)nnc2c(=O)n1CC1CCCCO1 (single isomer, unassigned) [Example 9, 3-(1-Cyclopropylcyclopropyl)-5,6-dimethyl-7-(tetrahydropyran-2-ylmethyl)-[1,2,4]triazolo[4,3-a]pyrazin-8-one]
- IC50 [1]: > 10 µM
- IC50 [2]: 0.000958 ± 0.000487 µM
- IC50 [3]: > 100 µM
- IC50 [4]: 33.1 µM

Structure (SMILES): Cc1c(C)n2c(C3(C4CC4)CC3)nnc2c(=O)n1CC1CCCCO1 (single isomer, unassigned) [Example 10]
- IC50 [1]: > 10 µM
- IC50 [2]: 0.002 ± 0.000311 µM
- IC50 [3]: > 100 µM
- IC50 [4]: 21.4 µM

Structure (SMILES): CCC1(c2nnc3c(=O)n(CC4CCCCO4)c(C)c(C)n23)CC1 (single isomer, unassigned) [Example 11, 3-(1-Ethylcyclopropyl)-5,6-dimethyl-7-(tetrahydropyran-2-ylmethyl)-[1,2,4]triazolo[4,3-a]pyrazin-8-one]
- IC50 [1]: > 10 µM
- IC50 [5]: 0.0132 µM
- IC50 [2]: 0.00477 ± 6e-05 µM
- IC50 [3]: > 100 µM
- IC50 [4]: 67.2 µM

Structure (SMILES): CCC1(c2nnc3c(=O)n(CC4CCCCO4)c(C)c(C)n23)CC1 (single isomer, unassigned) [Example 12, 3-(1-Ethylcyclopropyl)-5,6-dimethyl-7-(tetrahydropyran-2-ylmethyl)-[1,2,4]triazolo[4,3-a]pyrazin-8-one]
- IC50 [1]: 7.62 µM
- IC50 [5]: 0.0446 µM
- IC50 [2]: 0.0132 µM
- IC50 [3]: > 100 µM
- IC50 [4]: 31 µM

Structure (SMILES): Cc1c(C)n2c(C3(C)CC3)nnc2c(=O)n1CC1CCCCO1 (single isomer, unassigned) [Example 13, 5,6-Dimethyl-3-(1-methylcyclopropyl)-7-(tetrahydropyran-2-ylmethyl)-[1,2,4]triazolo[4,3-a]pyrazin-8-one]
- IC50 [1]: > 10 µM
- IC50 [3]: > 100 µM
- IC50 [4]: > 100 µM

Structure (SMILES): Cc1c(C)n2c(C3(C)CC3)nnc2c(=O)n1CC1CCCCO1 (single isomer, unassigned) [Example 14, 5,6-Dimethyl-3-(1-methylcyclopropyl)-7-(tetrahydropyran-2-ylmethyl)-[1,2,4]triazolo[4,3-a]pyrazin-8-one]
- IC50 [1]: > 10 µM
- IC50 [3]: > 100 µM
- IC50 [4]: 40.8 µM

Structure (SMILES): Cn1cc(Cc2cn3c(C4(C5CC5)CC4)nnc3c(=O)n2CC2CC2)cn1 [Example 1, 3-(1-Cyclopropylcyclopropyl)-7-(cyclopropylmethyl)-6-[(1-methylpyrazol-4-yl)methyl]-[1,2,4]triazolo[4,3-a]pyrazin-8-one]
- IC50 [1]: > 10 µM
- IC50 [5]: 0.0203 ± 0.0005 µM
- IC50 [2]: 0.012 ± 0.004 µM
- IC50 [6]: 0.0294 ± 0.0116 µM
- IC50 [3]: > 100 µM
- IC50 [4]: 5.59 µM

Structure (SMILES): Cc1c(C)n2c(C3(C4CC4)CC3)nnc2c(=O)n1CC1CC1 [Example 2, 3-(1-Cyclopropylcyclopropyl)-7-(cyclopropylmethyl)-5,6-dimethyl-[1,2,4]triazolo[4,3-a]pyrazin-8-one]
- IC50 [1]: > 10 µM
- IC50 [5]: 0.00373 ± 0.00202 µM
- IC50 [2]: 0.00281 ± 0.00088 µM
- IC50 [6]: 0.00411 ± 0.0011 µM
- IC50 [3]: > 100 µM
- IC50 [4]: 23.8 ± 0.8 µM

Structure (SMILES): CCCCCn1c(C)c(C)n2c(C3(C4CC4)CC3)nnc2c1=O [Example 3, 3-(1-Cyclopropylcyclopropyl)-5,6-dimethyl-7-pentyl-[1,2,4]triazolo[4,3-a]pyrazin-8-one]
- IC50 [1]: > 10 µM
- IC50 [5]: 0.011 ± 0.002 µM
- IC50 [2]: 0.00126 ± 0.00061 µM
- IC50 [6]: 0.00936 ± 0.00201 µM
- IC50 [3]: > 100 µM
- IC50 [4]: 14.3 µM

Structure (SMILES): Cc1c(C)n2c(C3(C4CC4)CC3)nnc2c(=O)n1CC1CCC1 [Example 4, 7-(Cyclobutylmethyl)-3-(1-cyclopropylcyclopropyl)-5,6-dimethyl-[1,2,4]triazolo[4,3-a]pyrazin-8-one]
- IC50 [1]: > 10 µM
- IC50 [5]: 0.00371 ± 8e-05 µM
- IC50 [2]: 0.00106 ± 0.00024 µM
- IC50 [6]: 0.00365 ± 0.00188 µM
- IC50 [3]: > 100 µM
- IC50 [4]: 24 µM

Structure (SMILES): CCCCn1c(C)c(C)n2c(C3(C4CC4)CC3)nnc2c1=O [Example 5, 7-Butyl-3-(1-cyclopropylcyclopropyl)-5,6-dimethyl-[1,2,4]triazolo[4,3-a]pyrazin-8-one]
- IC50 [1]: > 10 µM
- IC50 [5]: 0.0115 ± 0.0036 µM
- IC50 [2]: 0.0027 ± 0.00016 µM
- IC50 [6]: 0.0111 ± 0.003 µM
- IC50 [3]: > 100 µM
- IC50 [4]: 29.9 µM

Structure (SMILES): Cc1c(C)n2c(C3(C4CC4)CC3)nnc2c(=O)n1CC1(C)CC1 [Example 15, 3-(1-Cyclopropylcyclopropyl)-5,6-dimethyl-7-[(1-methylcyclopropyl)methyl]-[1,2,4]triazolo[4,3-a]pyrazin-8-one]
- IC50 [1]: > 10 µM
- IC50 [5]: 0.0031 ± 0.0011 µM
- IC50 [2]: 0.0014 ± 0.0003 µM
- IC50 [6]: 0.0049 ± 0.0018 µM
- IC50 [3]: 9.6 µM
- IC50 [4]: 14 ± 1.3 µM

Structure (SMILES): CCCCn1c(C)c(CC)n2c(C3(C4CC4)CC3)nnc2c1=O [Example 16, 7-Butyl-3-(1-cyclopropylcyclopropyl)-5-ethyl-6-methyl-[1,2,4]triazolo[4,3-a]pyrazin-8-one]
- IC50 [1]: > 10 µM
- IC50 [5]: 0.00867 ± 0.00791 µM
- IC50 [2]: 0.0012 ± 0.00094 µM
- IC50 [6]: 0.00654 ± 0.00261 µM
- IC50 [3]: > 100 µM
- IC50 [4]: 22.3 µM

— patent publication US11453673B2, “Substituted [1,2,4]triazolo[4,3-a]pyrazines as phosphodiesterase inhibitors” (Eli Lilly and Company, priority 2018, dated 2022)
